Laboratory results: patent US20080072494A1, “Micronutrient elicitor for treating nematodes in field crops” (priority 2006, published 2008)

Key:
[1] = tested on: β-1,3-glucanase; assay: β-1,3-glucanase elicitation in germinating mung beans after seed treatment (laminarin substrate); type: in vivo; conditions: mung bean seeds, 0.5, 0.05 and 0.005 mg/seed; higher doses gave lower activities
Method: Enzyme activity measurements relate to the level of a given enzyme protein in the plant tissue. As an example of enhanced enzyme activity, β-1,3-glucanase was measured. The enzyme, β-1,3-glucanase, was assayed using laminarin (a soluble β-1,3-glucan) as substrate. Crude homogenates of the seedlings from treated seeds yielded the data in FIG. 1. Increased β-1,3-glucanase activity compared to controls (without seed treatment) was obtained in the micronutrient of the present invention treatments ten days following germination. Elicitation of mung beans seeds that were treated with the micronutrient of the present invention were compared to those treated with two types of elicitors. First, various concentrations of purified colloidal chitin/chitosan were used. […] Secondly, lower concentrations of the chitin oligosaccharide containing six glycan moieties, N-acetylchitohexaose were studied. The importance of the chitin oligosaccharide is that short chains of chitin have been found optimal in elicitation of many types of plants. […] Comparisons similar to those with chitin/chitosan could be made between the performance of 1 mg/seed micronutrient of the present invention and lower concentrations of the more optimal oligosaccharide.

[2] = type: physicochemical
Source text: Chitin/chitosan occurs naturally in a range from 100% chitin to 100% chitosan as a mixed polymer. […] Below is data showing that the micronutrient of the present invention outperforms chitin/chitosan as an elicitor of self-protecting enzymes.

CC(=O)N[C@H]1[C@H](O[C@H]2[C@H](O)[C@@H](NC(C)=O)[C@H](O[C@H]3[C@H](O)[C@@H](NC(C)=O)C(O)O[C@@H]3CO)O[C@@H]2CO)O[C@H](CO)[C@@H](O[C@@H]2O[C@H](CO)[C@@H](O[C@@H]3O[C@H](CO)[C@@H](O[C@@H]4O[C@H](CO)[C@@H](O)[C@H](O)[C@H]4NC(C)=O)[C@H](O)[C@H]3NC(C)=O)[C@H](O)[C@H]2NC(C)=O)[C@@H]1O (some centres unmarked) [N-acetylchitohexaose]
dose response relationship of β-1,3-glucanase specific activity [1]: negative

chitin/chitosan
water solubility [2]: not water soluble
